Experimental data published in PMC5643385, “Probing ligand recognition of the opioid pan antagonist AT-076 at nociceptin, kappa, mu, and delta opioid receptors through structure-activity relationships” (Scientific Reports, 2017).
Where two headings read alike, the source gives them in different places. Each block holds one molecule with its values, some of them ahead of it.

Assays:
human MOP receptor [1] = target: T1, human MOP receptor (Homo sapiens, UniProt P35372); experiment: Radioligand competition binding, [3H]DAMGO, membranes of transfected CHO cells
human NOP receptor [2] = target: T2, human NOP receptor (Homo sapiens, UniProt P41146); experiment: Radioligand competition binding, [3H]N/OFQ, membranes of transfected CHO cells
human DOP receptor [3] = target: T3, human DOP receptor (Homo sapiens, UniProt P41143); experiment: Radioligand competition binding, [3H]DPDPE, membranes of transfected CHO cells
human KOP receptor [4] = target: T4, human KOP receptor (Homo sapiens, UniProt P41145); experiment: Radioligand competition binding, [3H]U69,593, membranes of transfected CHO cells (Kappa-CN)
human NOP receptor [5] = target: T2, human NOP receptor; design: method as in PMID 25635572; conditions: Figure 1; cited from earlier work
human MOP receptor [6] = target: T1, human MOP receptor; experiment: biochemical
human KOP receptor [7] = target: T4, human KOP receptor; experiment: biochemical
human NOP receptor [8] = target: T2, human NOP receptor; experiment: [35S]GTPγS functional assay (intrinsic activity; Schild analysis vs N/OFQ); format: biochemical
NOP = test system: NOP; design: method as in PMID 16451050; conditions: Figure 1; cited from earlier work
human DOP receptor [9] = target: T3, human DOP receptor; experiment: [35S]GTPγS functional assay (intrinsic activity; Schild analysis vs DPDPE); format: biochemical; conditions: inhibition of agonist-induced [35S]GTPγS binding, read-out: Antagonist Potency (pA2 ± SEM) DOP (converted)
human KOP receptor [10] = target: T4, human KOP receptor; design: method as in PMID 25635572; conditions: Figure 1; cited from earlier work
human MOP receptor [11] = target: T1, human MOP receptor; conditions: read-out: MOP Ki; Figure 1; cited from earlier work
human DOP receptor [12] = target: T3, human DOP receptor; conditions: read-out: DOP Ki; Figure 1; cited from earlier work
[13] = [3H]DAMGO displacement, Cheng-Prusoff, mean ± SEM, at least three experiments in triplicate, read-out: Receptor Binding, Ki MOP
[14] = [3H]N/OFQ displacement, Cheng-Prusoff, mean ± SEM, at least three experiments in triplicate, read-out: Receptor Binding, Ki NOP
[15] = read-out: Receptor Binding, Ki DOP
[16] = [3H]U69,593 displacement, Cheng-Prusoff, mean ± SEM, at least three experiments in triplicate, read-out: Receptor Binding, Ki KOP
[17] = read-out: Receptor Binding, Ki MOP
[18] = read-out: Receptor Binding, Ki KOP

- Ki (human MOP receptor [1]; [13]): 180 ± 70 nM
- Decrease in MOP binding affinity compared to AT-076 (human MOP receptor [1]; vs lead AT-076 (1)): > 100 fold
- Ki (human NOP receptor [2]; [14]): 3260 ± 780 nM
- Ki (human DOP receptor [3]; [15]): > 10000 nM
- Decrease in DOP binding affinity compared to AT-076 (human DOP receptor [3]; vs lead AT-076 (1)): > 100 fold
- Ki (human KOP receptor [4]; [16]): 129 ± 60 nM
- Decrease in KOP binding affinity compared to AT-076 (human KOP receptor [4]; vs lead AT-076 (1)): > 100 fold
SMILES: CC(C)[C@@H](CN1CCC(c2cccc(O)c2)CC1)NC(=O)[C@H]1Cc2ccc(CNC(=N)N)cc2CN1 [Compound 4, (R)-7-(guanidinomethyl)-N-((S)-1-(4-(3-hydroxyphenyl)piperidin-1-yl)-3-methylbutan-2-yl)-1,2,3,4-tetrahydroisoquinoline-3-carboxamide]

SMILES: CC(C)[C@@H](CN1CC[C@@](C)(c2cccc(O)c2)[C@@H](C)C1)NC(=O)[C@H]1Cc2ccc(O)cc2CN1 [JDTic, reference compound]
- Ki (human NOP receptor [2]; read-out: Receptor Binding, Ki NOP): 16.7 ± 0.76 nM
- Ki (human NOP receptor [5]): 16.7 ± 0.76 nM

SMILES: CC(C)[C@@H](CN1CCC(c2cccc(C#N)c2)CC1)NC(=O)[C@H]1Cc2ccc(O)cc2CN1 [Compound 8, (R)-N-((S)-1-(4-(3-cyanophenyl)piperidin-1-yl)-3-methylbutan-2-yl)-7-hydroxy-1,2,3,4-tetrahydroisoquinoline-3-carboxamide]
- Ki (human MOP receptor [1]): 2.93 ± 0.67 nM
- Kb (human MOP receptor [6]): 8.13 nM
- Ki (human NOP receptor [2]): 61.3 ± 14.6 nM
- Ki (human DOP receptor [3]; [15]): 136 ± 59.7 nM
- Ki (human KOP receptor [4]): 3.86 ± 0.09 nM
- Kb (human KOP receptor [7]): 0.269 nM

SMILES: CC(C)[C@@H](CN1CCC(c2cccc(CN)c2)CC1)NC(=O)[C@H]1Cc2ccc(O)cc2CN1 [Compound 10, (R)-N-((S)-1-(4-(3-(aminomethyl)phenyl)piperidin-1-yl)-3-methylbutan-2-yl)-7-hydroxy-1,2,3,4-tetrahydroisoquinoline-3-carboxamide]
- Ki (human MOP receptor [1]): 0.68 ± 0.28 nM
- Kb (human MOP receptor [6]): 15.5 nM
- Increase in NOP binding affinity compared to cyano precursor 8 (human NOP receptor [2]): 2 fold
- Ki (human NOP receptor [2]): 30.7 ± 14.5 nM
- Ki (human DOP receptor [3]; [15]): 133 ± 24.9 nM
- Ki (human KOP receptor [4]): 1.08 ± 0.01 nM
- Kb (human KOP receptor [7]): 0.38 nM
- Kb (human NOP receptor [8]): 132 nM

SMILES: CC(C)[C@@H](CN1CCC(c2cccc(CNC(=O)[C@@H](N)CCCNC(=N)N)c2)CC1)NC(=O)[C@H]1Cc2ccc(O)cc2CN1 [Compound 12, (R)-N-((S)-1-(4-(3-(((S)-2-amino-5-guanidinopentanamido)methyl)phenyl)piperidin-1-yl)-3-methylbutan-2-yl)-7-hydroxy-1,2,3,4-tetrahydroisoquinoline-3-carboxamide]
- Ki (human MOP receptor [1]): 5.67 ± 2.38 nM
- Kb (human MOP receptor [6]): 0.692 nM
- Ki (human NOP receptor [2]): 6.04 ± 1.32 nM
- Ki (human DOP receptor [3]): 53.6 ± 7.12 nM
- Ki (human KOP receptor [4]): 2.11 ± 0.52 nM
- Kb (human KOP receptor [7]): 0.158 nM
- Kb (human NOP receptor [8]): 5.01 nM

SMILES: CC(C)[C@@H](CN1CCC(c2cccc(O)c2)CC1)NC(=O)[C@@H](N)CCCCN [Compound 6, (S)-2,6-diamino-N-((S)-1-(4-(3-hydroxyphenyl)piperidin-1-yl)-3-methylbutan-2-yl)hexanamide]
- Ki (human MOP receptor [1]; [13]): > 10000 nM
- Ki (human NOP receptor [2]; [14]): > 10000 nM
- Ki (human DOP receptor [3]; [15]): > 10000 nM
- Ki (human KOP receptor [4]; [16]): 1520 ± 419 nM

SMILES: CC(C)[C@@H](CN1CCC(c2cccc(CN)c2)CC1)NC(=O)[C@H]1Cc2ccccc2CN1 [Compound 11, (R)-N-((S)-1-(4-(3-(aminomethyl)phenyl)piperidin-1-yl)-3-methylbutan-2-yl)-1,2,3,4-tetrahydroisoquinoline-3-carboxamide]
- Ki (human MOP receptor [1]; [13]): 284 ± 75.3 nM
- Ki (human NOP receptor [2]; [14]): 202 ± 55.6 nM
- Ki (human DOP receptor [3]; [15]): > 10000 nM
- Ki (human KOP receptor [4]; [16]): 408 ± 30.8 nM

SMILES: O=C(NCCCN1CCC2(CC1)OCc1ccccc12)C1CCCN1Cc1ccccc1 (stereo not drawn) [Compound C-24]
- IC50 (NOP): 0.27 ± 0.038 nM

SMILES: CC(C)[C@@H](CN1CCC(c2cccc(C#N)c2)CC1)NC(=O)[C@H]1Cc2ccccc2CN1 [Compound 9, (R)-N-((S)-1-(4-(3-cyanophenyl)piperidin-1-yl)-3-methylbutan-2-yl)-1,2,3,4-tetrahydroisoquinoline-3-carboxamide]
- Ki (human MOP receptor [1]; [13]): 973 ± 21 nM
- Ki (human NOP receptor [2]; [14]): > 10000 nM
- Ki (human DOP receptor [3]; [15]): > 10000 nM
- Ki (human KOP receptor [4]; [16]): 543 ± 62.2 nM

SMILES: CC(C)[C@@H](CN1CCC(C2CCCCC2)CC1)NC(=O)[C@H]1Cc2ccc(O)cc2CN1 [Compound 14, (R)-N-((S)-1-(4-cyclohexylpiperidin-1-yl)-3-methylbutan-2-yl)-7-hydroxy-1,2,3,4-tetrahydroisoquinoline-3-carboxamide]
- Ki (human MOP receptor [1]): 2.79 ± 0.28 nM
- Kb (human MOP receptor [6]): 0.692 nM
- Ki (human NOP receptor [2]): 84.4 ± 13.6 nM
- Ki (human DOP receptor [3]): 12.4 ± 8 nM
- Binding selectivity for KOP over DOP (human KOP receptor [4]): 49 fold
- Binding selectivity for KOP over MOP (human KOP receptor [4]): 11 fold
- Binding selectivity for KOP over NOP (human KOP receptor [4]): 333 fold
- Higher KOP affinity than AT-076 (human KOP receptor [4]): 2–4 fold
- Ki (human KOP receptor [4]): 0.253 ± 0.015 nM
- Kb (human KOP receptor [7]): 0.0347 nM
- Kb (human DOP receptor [9]): 42.3 nM

SMILES: Cc1cccc2c1CC[C@H](CN1CCC(c3c(Cl)cccc3Cl)CC1)C[C@@H]2O [SB-612111, reference compound]
- Ki (human MOP receptor [1]; [17]): 623 ± 156 nM
- Ki (human DOP receptor [3]; [15]): 2890 ± 532 nM
- Ki (human KOP receptor [4]; [18]): 541 ± 36.3 nM

SMILES: CC(C)[C@@H](CN1CCC(c2cccc(O)c2)CC1)NC(=O)[C@@H](N)CCCNC(=N)N [Compound 7, (S)-2-amino-5-guanidino-N-((S)-1-(4-(3-hydroxyphenyl)piperidin-1-yl)-3-methylbutan-2-yl)pentanamide]
- Ki (human MOP receptor [1]; [13]): 1440 ± 57.6 nM
- Ki (human NOP receptor [2]; [14]): > 10000 nM
- Ki (human DOP receptor [3]; [15]): > 10000 nM
- Ki (human KOP receptor [4]; [16]): 125 ± 2.4 nM

SMILES: CC(C)[C@@H](CN1CCC(N2CCc3ccccc32)CC1)NC(=O)[C@H]1Cc2ccc(O)cc2CN1 [Compound 16, (R)-7-hydroxy-N-((S)-1-(4-(indolin-1-yl)piperidin-1-yl)-3-methylbutan-2-yl)-1,2,3,4-tetrahydroisoquinoline-3-carboxamide]
- Ki (human NOP receptor [2]; [14]): 566 ± 129 nM
- Ki (human DOP receptor [3]; [15]): 138 ± 45 nM

SMILES: CC(C)[C@@H](CN1CCC(c2cccc(O)c2)CC1)NC(=O)[C@H]1Cc2ccc(O)cc2CN1 [1 (AT-076), (R)-7-hydroxy-N-((S)-1-(4-(3-hydroxyphenyl)piperidin-1-yl)-3-methylbutan-2-yl)-1,2,3,4-tetrahydroisoquinoline-3-carboxamide]
- Ki (human MOP receptor [1]; [17]): 1.67 ± 0.6 nM
- Antagonist Potency (pA2 ± SEM) MOP (human MOP receptor [6]; cho cell membranes): 9.24
- Ki (human KOP receptor [10]): 1.14 ± 0.63 nM
- Ki (human MOP receptor [11]): 1.67 ± 0.6 nM
- Ki (human DOP receptor [3]; [15]): 19.6 ± 1.3 nM
- Ki (human KOP receptor [4]; [18]): 1.14 ± 0.63 nM
- Antagonist Potency (pA2 ± SEM) KOP (human KOP receptor [7]; cho cell membranes): 8.366
- Ki (human DOP receptor [12]): 19.6 ± 1.3 nM
- Kb (human DOP receptor [9]): 26.9 nM

SMILES: CC(C)[C@@H](CN1CCC(c2cccc(CNC(=O)[C@@H](N)CCCNC(=N)N)c2)CC1)NC(=O)[C@H]1Cc2ccccc2CN1 [Compound 13, (R)-N-((S)-1-(4-(3-(((S)-2-amino-5-guanidinopentanamido)methyl)phenyl)piperidin-1-yl)-3-methylbutan-2-yl)-1,2,3,4-tetrahydroisoquinoline-3-carboxamide]
- Ki (human MOP receptor [1]; [13]): 408 ± 37.3 nM
- Ki (human NOP receptor [2]): 43.3 ± 19.1 nM
- Ki (human DOP receptor [3]; [15]): > 10000 nM
- Ki (human KOP receptor [4]): 56.1 ± 5.38 nM

SMILES: CC(C)[C@@H](CN1CCC(c2cccc(O)c2)CC1)NC(=O)[C@H]1Cc2ccc(C#N)cc2CN1 [Compound 2, (R)-7-cyano-N-((S)-1-(4-(3-hydroxyphenyl)piperidin-1-yl)-3-methylbutan-2-yl)-1,2,3,4-tetrahydroisoquinoline-3-carboxamide]
- Ki (human MOP receptor [1]): 81.7 ± 12.4 nM
- Ki (human NOP receptor [2]; [14]): 1890 ± 270 nM
- Ki (human DOP receptor [3]): 73.7 ± 57.9 nM
- Decrease in KOP binding affinity compared to AT-076 (human KOP receptor [4]): 6 fold
- Ki (human KOP receptor [4]): 6.73 ± 1.42 nM
- Profile in Schild analysis KOP (human KOP receptor [7]): N/C^#

SMILES: CC(C)[C@@H](CN1CCC(c2cccc(O)c2)CC1)NC(=O)[C@H]1Cc2ccc(CN)cc2CN1 [Compound 3, (R)-7-(aminomethyl)-N-((S)-1-(4-(3-hydroxyphenyl)piperidin-1-yl)-3-methylbutan-2-yl)-1,2,3,4-tetrahydroisoquinoline-3-carboxamide]
- Decrease in MOP binding affinity compared to AT-076 (human MOP receptor [1]): > 100 fold
- Ki (human MOP receptor [1]; [13]): 1490 ± 220 nM
- Ki (human NOP receptor [2]; [14]): 5540 ± 1150 nM
- Decrease in DOP binding affinity compared to AT-076 (human DOP receptor [3]): > 100 fold
- Ki (human DOP receptor [3]; [15]): 1570 ± 1130 nM
- Decrease in KOP binding affinity compared to AT-076 (human KOP receptor [4]): > 100 fold
- Ki (human KOP receptor [4]; [16]): 118 ± 29 nM

SMILES: CC(C)[C@@H](CN1CCC(c2cccc(O)c2)CC1)NC(=O)[C@H]1Cc2ccc(CNS(C)(=O)=O)cc2CN1 [Compound 5, (R)-N-((S)-1-(4-(3-hydroxyphenyl)piperidin-1-yl)-3-methylbutan-2-yl)-7-(methylsulfonamidomethyl)-1,2,3,4-tetrahydroisoquinoline-3-carboxamide]
- Ki (human MOP receptor [1]; [13]): 4400 ± 2350 nM
- Ki (human NOP receptor [2]; [14]): 7910 ± 1470 nM
- Ki (human DOP receptor [3]; [15]): > 10000 nM
- Ki (human KOP receptor [4]; [16]): 295 ± 65 nM
